# Source: patent publication EP1803452A1, “ESTER DERIVATIVE AND PHARMACEUTICAL USE THEREOF” (Japan Tobacco, Inc., priority 2004, dated 2006)
# How the values were obtained:
# [1] = Metabolic stability test in liver S9; format: in vitro ADME; details: pH 7.4, human liver S9 2 mg protein/mL, LC/MS; for remaining at 10 min: unchanged form after 10 minutes at 37°C, read-out: Remaining rate in human liver S9 (%/10min); for remaining at 1 h: unchanged form after 60 minutes at 37°C, read-out: Remaining rate in human liver S9 (%/60min)
# In short: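 Compound from DMSO solution was incubated at 37°C with human liver S9 (final 2 mg protein/mL) in 100 mM potassium phosphate pH 7.4 with an NADPH-regenerating system for 0, 10 and 60 minutes. Reactions were stopped with acetonitrile/0.1% formic acid. Unchanged compound was measured by LC/MS as remaining rate (%) relative to zero time.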
# [2] = Stability test in buffer (pH 7.4); format: physicochemical; details: phosphate buffer/acetonitrile 7:3, 100 mM potassium phosphate buffer (pH 7.4) and acetonitrile 7:3 (v/v), LC/MS; for remaining at 10 min: 10 minutes at 37°C, read-out: Buf. remaining rate (%/10min); for remaining at 1 h: 60 minutes at 37°C, read-out: Buf. remaining rate (%/60min)
# In short: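 Compound from DMSO solution incubated at 37°C in 100 mM potassium phosphate buffer/acetonitrile 7:3 (v/v) for 0, 10 and 60 min, then quenched with acetonitrile containing formic acid (final 0.1%). Unchanged compound in supernatant quantified by LC/MS; remaining rate (%) = amount at each time / amount at zero time × 100.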
# [3] = Metabolic stability test in plasma; format: in vitro ADME, human; details: LC/MS; for remaining at 10 min: unchanged form after 10 minutes at 37°C in human plasma, read-out: Remaining rate in human plasma (%/10min); for remaining at 1 h: unchanged form after 60 minutes at 37°C in human plasma, read-out: Remaining rate in human plasma (%/60min)
# In short: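 Compound in DMSO spiked into human, mouse or hamster plasma, incubated at 37°C for 0, 10 and 60 minutes, then quenched with acetonitrile/formic acid (final 0.1%). Unchanged compound in supernatant quantified by LC/MS; remaining rate (%) relative to time zero.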
Compound,remaining at 10 min [1] [%],remaining at 1 h [1] [%],remaining at 10 min [2] [%],remaining at 1 h [2] [%],remaining at 10 min [3] [%],remaining at 1 h [3] [%]
"CN(C)C(=O)c1cc(CCCC(=O)Oc2ccc(C(=O)OCCOCc3ccccc3)cc2)ccc1NC(=O)c1ccccc1-c1ccc(C(F)(F)F)cc1 [Compound 1-89, 4-[4-(3-dimethylcarbamoyl-4-{(4'-trifluoromethylbiphenyl-2-carbonyl)amino}phenyl)butyryloxy]benzoic acid 2-benzyloxyethyl ester]",6,3,102,104,49,0
"CN(C)C(=O)c1cc(CCCC(=O)Oc2ccc(C(=O)OCCCOCc3ccccc3)cc2)ccc1NC(=O)c1ccccc1-c1ccc(C(F)(F)F)cc1 [Compound 1-90, 4-[4-(3-dimethylcarbamoyl-4-{(4'-trifluoromethylbiphenyl-2-carbonyl)amino}phenyl)butyryloxy]benzoic acid 3-benzyloxypropyl ester]",7,0,102,103,50,0
"CN(C)C(=O)c1cc(CCCC(=O)Oc2ccc(C(=O)OCCN3CCCC3=O)cc2)ccc1NC(=O)c1ccccc1-c1ccc(C(F)(F)F)cc1 [Compound 1-91, 4-[4-(3-dimethylcarbamoyl-4-{(4'-trifluoromethylbiphenyl-2-carbonyl)amino}phenyl)butyryloxy]benzoic acid 2-(2-oxopyrrolidin-1-yl)ethyl ester]",0,0,100,105,31,0
"COc1cccc(COC(=O)c2ccc(OC(=O)CCCc3ccc(NC(=O)c4ccccc4-c4ccc(C(F)(F)F)cc4)c(C(=O)N(C)C)c3)cc2)c1 [Compound 1-97, 4-[4-(3-dimethylcarbamoyl-4-{(4'-trifluoromethylbiphenyl-2-carbonyl)amino}phenyl)butyryloxy]benzoic acid 3-methoxybenzyl ester]",13,7,100,104,49,0
"CN(C)C(=O)c1cc(CCCC(=O)Oc2ccc(C(=O)OCc3cccs3)cc2)ccc1NC(=O)c1ccccc1-c1ccc(C(F)(F)F)cc1 [Compound 1-98, 4-[4-(3-dimethylcarbamoyl-4-{(4'-trifluoromethylbiphenyl-2-carbonyl)amino}phenyl)butyryloxy]benzoic acid thiophen-2-ylmethyl ester]",6,0,101,99,5,0
"CN(C)C(=O)c1cc(CCCC(=O)Oc2ccc(C(=O)OCc3ccsc3)cc2)ccc1NC(=O)c1ccccc1-c1ccc(C(F)(F)F)cc1 [Compound 1-99, 4-[4-(3-dimethylcarbamoyl-4-{(4'-trifluoromethylbiphenyl-2-carbonyl)amino}phenyl)butyryloxy]benzoic acid thiophen-3-ylmethyl ester]",6,0,98,99,5,0

# The next lines start with the values.
remaining at 10 min [1] [%],remaining at 1 h [1] [%],remaining at 10 min [2] [%],remaining at 1 h [2] [%],remaining at 10 min [3] [%],remaining at 1 h [3] [%],Compound
11,2,100,104,60,2,"CN(C)C(=O)c1cc(CCCC(=O)Oc2ccc(C(=O)OCc3cccc(Cl)c3)cc2)ccc1NC(=O)c1ccccc1-c1ccc(C(F)(F)F)cc1 [Compound 1-87, 4-[4-(3-dimethylcarbamoyl-4-{(4'-trifluoromethylbiphenyl-2-carbonyl)amino}phenyl)butyryloxy]benzoic acid 3-chlorobenzyl ester]"
0,0,102,101,39,0,"CCC(=O)c1ccc(OC(=O)CCCc2ccc(NC(=O)c3ccccc3-c3ccc(C(F)(F)F)cc3)c(C(=O)N(C)C)c2)cc1 [Compound 1-88, 4-(3-dimethylcarbamoyl-4-{(4'-trifluoromethylbiphenyl-2-carbonyl)amino}phenyl)butyric acid 4-propionylphenyl ester]"
0,0,102,107,71,6,"CN(C)C(=O)c1cc(CCCC(=O)Oc2ccc(C(=O)OCCCO)cc2)ccc1NC(=O)c1ccccc1-c1ccc(C(F)(F)F)cc1 [Compound 1-92, 4-[4-(3-dimethylcarbamoyl-4-{(4'-trifluoromethylbiphenyl-2-carbonyl)amino}phenyl)butyryloxy]benzoic acid 3-hydroxypropyl ester]"
4,0,107,109,52,0,"CCCC(=O)c1ccc(OC(=O)CCCc2ccc(NC(=O)c3ccccc3-c3ccc(C(F)(F)F)cc3)c(C(=O)N(C)C)c2)cc1 [Compound 1-93, 4-(3-dimethylcarbamoyl-4-{(4'-trifluoromethylbiphenyl-2-carbonyl)amino}phenyl)butyric acid 4-butyrylphenyl ester]"
0,0,99,102,41,9,"Cc1ccc(C(=O)Nc2ccc(CCCC(=O)Oc3ccc(C(=O)OCc4cccnc4)cc3)cc2C(=O)N(C)C)c(-c2ccc(C(F)(F)F)cc2)n1 [Compound 1-94, 4-[4-(3-dimethylcarbamoyl-4-{[6-methyl-2-(4-trifluoromethylphenyl)pyridine-3-carbonyl]amino}phenyl)butyryloxy]benzoic acid pyridin-3-ylmethyl ester]"
0,0,103,102,82,29,"CN(C)C(=O)c1cc(CCCC(=O)Oc2ccc(-c3nnn(C)n3)cc2)ccc1NC(=O)c1ccccc1-c1ccc(C(F)(F)F)cc1 [Compound 1-95, 4-(3-dimethylcarbamoyl-4-{(4'-trifluoromethylbiphenyl-2-carbonyl)amino}phenyl)butyric acid 4-(2-methyl-2H-tetrazol-5-yl)phenyl ester]"
15,7,100,109,0,0,"COc1ccc(COC(=O)c2ccc(OC(=O)CCCc3ccc(NC(=O)c4ccccc4-c4ccc(C(F)(F)F)cc4)c(C(=O)N(C)C)c3)cc2)cc1 [Compound 1-96, 4-[4-(3-dimethylcarbamoyl-4-{(4'-trifluoromethylbiphenyl-2-carbonyl)amino}phenyl)butyryloxy]benzoic acid 4-methoxybenzyl ester]"
